# In ChEMBL document CHEMBL5055633, “Amphipathic Barbiturates as Mimics of Antimicrobial Peptides and the Marine Natural Products Eusynstyelamides with Activity against Multi-resistant Clinical Isolates” (J Med Chem, 2021):
# What was measured:
# HepG2 = assay: Cytotoxicity against human HepG2 cells assessed as reduction in cell viability incubated for 24 hrs by colorimetric tetrazolium assay; format: functional, cell-based; settings: HepG2, 24 h
# Enterococcus faecium [1] = assay: Antimicrobial activity against extended spectrum-lactamase-carbapenemas producing Enterococcus faecium strain 50673722 assessed as reduction in bacterial growth incubated for 48 hrs by microdilution method; format: functional
# Pseudomonas aeruginosa [2] = assay: Antimicrobial activity against verona integron-encoded metallo-beta-lactamase producing Pseudomonas aeruginosa 50692520 assessed as reduction in bacterial growth incubated for 48 hrs by microdilution method; format: functional
# Pseudomonas aeruginosa [3] = assay: Antimicrobial activity against verona integron-encoded metallo-beta-lactamase-4 producing Pseudomonas aeruginosa K34-73 assessed as reduction in bacterial growth incubated for 48 hrs by microdilution method; format: functional
# Staphylococcus aureus [4] = assay: Antimicrobial activity against extended spectrum-lactamase-carbapenemas producing Staphylococcus aureus N315 assessed as reduction in bacterial growth incubated for 48 hrs by microdilution method; format: functional
# Escherichia coli [5] = assay: Antimicrobial activity against Escherichia coli ATCC 25922 assessed as reduction in bacterial growth incubated for 48 hrs by microdilution susceptibility test; format: functional
# [6] = Antimicrobial activity against New Delhi metallo-beta lactamase-1 and oxacillinase -181 producing Klebsiella pneumoniae 50531633 assessed as reduction in bacterial growth incubated for 48 hrs by microdilution method; format: functional
# Enterococcus faecium [7] = assay: Antimicrobial activity against extended spectrum-lactamase-carbapenemas producing Enterococcus faecium strain 50758899 assessed as reduction in bacterial growth incubated for 48 hrs by microdilution method; format: functional
# MRC5 = assay: Cytotoxicity against human MRC5 cells assessed as reduction in cell viability incubated for 24 hrs by colorimetric tetrazolium assay; format: functional, cell-based; settings: MRC5, 24 h
# Escherichia coli [8] = assay: Antimicrobial activity against oxacillinase-producing Escherichia coli 50579417 assessed as reduction in bacterial growth incubated for 48 hrs by microdilution method; format: functional
# [9] = Antimicrobial activity against New Delhi metallo-beta lactamase-1 Klebsiella pneumoniae K66-45 assessed as reduction in bacterial growth incubated for 48 hrs by microdilution method; format: functional
# [10] = Antimicrobial activity against verona integron-encoded metallo-beta-lactamase -1 producing Klebsiella pneumoniae 50667959 assessed as reduction in bacterial growth incubated for 48 hrs by microdilution method; format: functional
# [11] = Antimicrobial activity against oxacillinase-245 producing Klebsiella pneumoniae 50625602 assessed as reduction in bacterial growth incubated for 48 hrs by microdilution method; format: functional
# Escherichia coli [12] = assay: Antimicrobial activity against imipenem-type carbapenemase-26 producing Escherichia coli 50857972 assessed as reduction in bacterial growth incubated for 48 hrs by microdilution method; format: functional
# Staphylococcus aureus [13] = assay: Antimicrobial activity against Staphylococcus aureus ATCC 9144 assessed as reduction in bacterial growth incubated for 48 hrs by microdilution susceptibility test; format: functional
# Enterococcus faecium [14] = assay: Antimicrobial activity against extended spectrum-lactamase-carbapenemas producing Enterococcus faecium strain TUH.50-22 assessed as reduction in bacterial growth incubated for 48 hrs by microdilution method; format: functional
# Escherichia coli [15] = assay: Antimicrobial activity against New Delhi metallo-beta lactamase-1 producing Escherichia coli 50676002 assessed as reduction in bacterial growth incubated for 48 hrs by microdilution method; format: functional
# Acinetobacter baumannii [16] = assay: Antimicrobial activity against oxacillinase-58 producing Acinetobacter baumannii K12-21 assessed as reduction in bacterial growth incubated for 48 hrs by microdilution method; format: functional
# Pseudomonas aeruginosa [17] = assay: Antimicrobial activity against New Delhi metallo-beta lactamase-1 producing Pseudomonas aeruginosa 50692172 assessed as reduction in bacterial growth incubated for 48 hrs by microdilution method; format: functional
# Pseudomonas aeruginosa [18] = assay: Antimicrobial activity against verona integron-encoded metallo-beta-lactamase-2 producing Pseudomonas aeruginosa K34-7 assessed as reduction in bacterial growth incubated for 48 hrs by microdilution method; format: functional
# Acinetobacter baumannii [19] = assay: Antimicrobial activity against oxacillinase-24 producing Acinetobacter baumannii K55-13 assessed as reduction in bacterial growth incubated for 48 hrs by microdilution method; format: functional
# Staphylococcus aureus [20] = assay: Antimicrobial activity against extended spectrum-lactamase-carbapenemas producing Staphylococcus aureus strain 85/2082 assessed as reduction in bacterial growth incubated for 48 hrs by microdilution method; format: functional
# Escherichia coli [21] = assay: Antimicrobial activity against New Delhi metallo-beta lactamase-1 producing Escherichia coli 50739822 assessed as reduction in bacterial growth incubated for 48 hrs by microdilution method; format: functional
# Acinetobacter baumannii [22] = assay: Antimicrobial activity against oxacillinase-23 producing Acinetobacter baumannii K63-58 assessed as reduction in bacterial growth incubated for 48 hrs by microdilution method; format: functional
# Pseudomonas aeruginosa [23] = assay: Antimicrobial activity against Pseudomonas aeruginosa PAO1 assessed as reduction in bacterial growth incubated for 48 hrs by microdilution susceptibility test; format: functional
# Staphylococcus aureus [24] = assay: Antimicrobial activity against extended spectrum-lactamase-carbapenemas producing Staphylococcus aureus strain IHT 99040 assessed as reduction in bacterial growth incubated for 48 hrs by microdilution method; format: functional
# Enterococcus faecium [25] = assay: Antimicrobial activity against extended spectrum-lactamase-carbapenemas producing Enterococcus faecium strain 50901530 assessed as reduction in bacterial growth incubated for 48 hrs by microdilution method; format: functional
# [26] = Hemolytic activity in human erythrocytes incubated for 1 hr by microplate reader; format: functional, cell-based; settings: erythrocyte
# Escherichia coli [27] = assay: Antimicrobial activity against verona integron-encoded metallo-beta-lactamase-29-producing Escherichia coli 50639799 assessed as reduction in bacterial growth incubated for 48 hrs by microdilution method; format: functional
# Acinetobacter baumannii [28] = assay: Antimicrobial activity against oxacillinase-23 producing Acinetobacter baumannii K44-35 assessed as reduction in bacterial growth incubated for 48 hrs by microdilution method; format: functional
# Acinetobacter baumannii [29] = assay: Antimicrobial activity against oxacillinase-23 producing Acinetobacter baumannii K47-42 assessed as reduction in bacterial growth incubated for 48 hrs by microdilution method; format: functional
# Staphylococcus aureus [30] = assay: Antimicrobial activity against extended spectrum-lactamase-carbapenemas producing Staphylococcus aureus strain WIS assessed as reduction in bacterial growth incubated for 48 hrs by microdilution method; format: functional
# [31] = tested on: Corynebacterium glutamicum; assay: Antimicrobial activity against Corynebacterium glutamicum ATCC 13032 assessed as reduction in bacterial growth incubated for 48 hrs by microdilution susceptibility test; format: functional
# Enterococcus faecium [32] = assay: Antimicrobial activity against extended spectrum-lactamase-carbapenemas producing Enterococcus faecium strain K36-18 assessed as reduction in bacterial growth incubated for 48 hrs by microdilution method; format: functional
# [33] = Antimicrobial activity against carbapenemase producing Klebsiella pneumoniae K47-25 assessed as reduction in bacterial growth incubated for 48 hrs by microdilution method; format: functional
# Staphylococcus aureus [34] = assay: Antimicrobial activity against extended spectrum-lactamase-carbapenemas producing Staphylococcus aureus NCTC 10442 assessed as reduction in bacterial growth incubated for 48 hrs by microdilution method; format: functional
# Pseudomonas aeruginosa [35] = assay: Antimicrobial activity against imipenem-type carbapenemase-14 producing Pseudomonas aeruginosa K44-24 assessed as reduction in bacterial growth incubated for 48 hrs by microdilution method; format: functional
SMILES,IC50 (HepG2),MIC (Enterococcus faecium [1]),MIC (Pseudomonas aeruginosa [2]),MIC (Pseudomonas aeruginosa [3]),MIC (Staphylococcus aureus [4]),MIC (Escherichia coli [5]),MIC [6],MIC (Enterococcus faecium [7]),IC50 (MRC5),MIC (Escherichia coli [8]),MIC [9],MIC [10],MIC [11],MIC (Escherichia coli [12]),MIC (Staphylococcus aureus [13]),MIC (Enterococcus faecium [14]),MIC (Escherichia coli [15]),MIC (Acinetobacter baumannii [16]),MIC (Pseudomonas aeruginosa [17]),MIC (Pseudomonas aeruginosa [18]),other results
CC(C)(C)c1cc(CC2(Cc3cc(C(C)(C)C)cc(C(C)(C)C)c3)C(=O)N(CCCCNC(=N)N)C(=O)N(CCCCNC(=N)N)C2=O)cc(C(C)(C)C)c1.O=C(O)C(F)(F)F.O=C(O)C(F)(F)F,15 µg/mL,2 µg/mL,16 µg/mL,8 µg/mL,4 µg/mL,4 µg/mL,16 µg/mL,2 µg/mL,17 µg/mL,16 µg/mL,8 µg/mL,8 µg/mL,16 µg/mL,8 µg/mL,1 µg/mL,2 µg/mL,16 µg/mL,4 µg/mL,16 µg/mL,16 µg/mL,MIC (Acinetobacter baumannii [19]): 4 µg/mL; MIC (Staphylococcus aureus [20]): 2 µg/mL; MIC (Escherichia coli [21]): 8 µg/mL; MIC (Acinetobacter baumannii [22]): 4 µg/mL; MIC (Pseudomonas aeruginosa [23]): 4 µg/mL; MIC (Staphylococcus aureus [24]): 2 µg/mL; MIC (Enterococcus faecium [25]): 2 µg/mL; EC50 [26]: < 6 µg/mL; MIC (Escherichia coli [27]): 8 µg/mL; MIC (Acinetobacter baumannii [28]): 4 µg/mL; MIC (Acinetobacter baumannii [29]): 4 µg/mL; MIC (Staphylococcus aureus [30]): 2 µg/mL; MIC [31]: 0.25 µg/mL; MIC (Enterococcus faecium [32]): 2 µg/mL; MIC [33]: 16 µg/mL; MIC (Staphylococcus aureus [34]): 2 µg/mL; MIC (Pseudomonas aeruginosa [35]): 16 µg/mL
NCCCCN1C(=O)N(CCCCN)C(=O)C(Cc2ccc(F)c3ccccc23)(Cc2ccc(F)c3ccccc23)C1=O.O=C(O)C(F)(F)F.O=C(O)C(F)(F)F,5 µg/mL,8 µg/mL,16 µg/mL,32 µg/mL,8 µg/mL,16 µg/mL,16 µg/mL,8 µg/mL,2 µg/mL,16 µg/mL,32 µg/mL,32 µg/mL,32 µg/mL,16 µg/mL,4 µg/mL,4 µg/mL,16 µg/mL,32 µg/mL,16 µg/mL,32 µg/mL,MIC (Acinetobacter baumannii [19]): 32 µg/mL; MIC (Staphylococcus aureus [20]): 4 µg/mL; MIC (Escherichia coli [21]): 16 µg/mL; MIC (Acinetobacter baumannii [22]): 16 µg/mL; MIC (Pseudomonas aeruginosa [23]): 8 µg/mL; MIC (Staphylococcus aureus [24]): 8 µg/mL; MIC (Enterococcus faecium [25]): 4 µg/mL; EC50 [26]: 160 µg/mL; MIC (Escherichia coli [27]): 16 µg/mL; MIC (Acinetobacter baumannii [28]): 32 µg/mL; MIC (Acinetobacter baumannii [29]): 32 µg/mL; MIC (Staphylococcus aureus [30]): 8 µg/mL; MIC [31]: 1 µg/mL; MIC (Enterococcus faecium [32]): 8 µg/mL; MIC [33]: > 32 µg/mL; MIC (Staphylococcus aureus [34]): 8 µg/mL; MIC (Pseudomonas aeruginosa [35]): 32 µg/mL
N=C(N)NCCCCN1C(=O)N(CCCCNC(=N)N)C(=O)C(Cc2ccc(F)c3ccccc23)(Cc2ccc(F)c3ccccc23)C1=O.O=C(O)C(F)(F)F.O=C(O)C(F)(F)F,56 µg/mL,4 µg/mL,16 µg/mL,8 µg/mL,2 µg/mL,1 µg/mL,8 µg/mL,4 µg/mL,23 µg/mL,8 µg/mL,4 µg/mL,4 µg/mL,16 µg/mL,4 µg/mL,1 µg/mL,4 µg/mL,4 µg/mL,8 µg/mL,16 µg/mL,16 µg/mL,MIC (Acinetobacter baumannii [19]): 8 µg/mL; MIC (Staphylococcus aureus [20]): 2 µg/mL; MIC (Escherichia coli [21]): 8 µg/mL; MIC (Acinetobacter baumannii [22]): 8 µg/mL; MIC (Pseudomonas aeruginosa [23]): 4 µg/mL; MIC (Staphylococcus aureus [24]): 2 µg/mL; MIC (Enterococcus faecium [25]): 4 µg/mL; EC50 [26]: 90 µg/mL; MIC (Escherichia coli [27]): 4 µg/mL; MIC (Acinetobacter baumannii [28]): 8 µg/mL; MIC (Acinetobacter baumannii [29]): 8 µg/mL; MIC (Staphylococcus aureus [30]): 2 µg/mL; MIC [31]: 0.25 µg/mL; MIC (Enterococcus faecium [32]): 4 µg/mL; MIC [33]: 8 µg/mL; MIC (Staphylococcus aureus [34]): 2 µg/mL; MIC (Pseudomonas aeruginosa [35]): 16 µg/mL
